Consider 14 compounds from US7238813B2, “Chemical compounds” (Smithkline Beecham Corporation, priority 2000, dated 2007).

For assay [1], the system named is Human umbilical cord endothelial cells (HUVEC). Kind of assay: VEGF-driven cellular proliferation assay: BrdU incorporation assay (VEGF-C). The class given is cell-based. The following applies: for IC50: Homo sapiens. More on the design: key to VEGF-C: + = pIC50 of 5.0–6.0; ++ = pIC50 of 6.0–7.0; +++ = pIC50 of > 7.0; − = a negative or inconclusive result. As for the experimental part:
VFGF-driven Cellular Proliferation Assay: BrdU Incorporation Assay (VEGF-C)
Human umbilical cord endothelial cells (HUVEC, Clonetics, CC2519) were passaged in Type I collagen-coated 100-mm petridishes in EGM-MV medium (Clonetics, CC3125) at 37° C. in a humidified 5% CO2, 95% air incubator. (HUVEC passaged more than 6 times in vitro were discarded and not subjected to assaying.) The cells were harvested using trypsin/EDTA, counted using a haemocytometer and plated at 5000 cells/well in a Type I-collagen coated 96-well plate (Becton Dickinson, 354407) in M199 medium (Gibco BRL, 12340-030) containing 5% FBS (Hyclone, A 1115-L) and gentamicin (at 50 μg/ml, Gibco BRL). After incubation overnight at 37° C., the media were replaced with 100 μl of M199 serum-free medium containing compounds at various concentrations with 0.6% DMSO and gentamicin. The compounds were diluted in serum-free M199 medium from 10 mM stock solutions prepared in 100% DMSO. After a 30 min incubation at 37° C., the cells were fed with 100 μl of serum-free M199 medium containing gentamicin, 0.2% culture-grade bovine serum albumin (BSA, Sigma A1993) and 20 ng/ml of VEGF (R&D systems, 293-VE) or 0.6 ng/ml of basic FGF (R&D systems, 233-FB), and cultured at 37° C. for another 24 h. The cells were pulsed with bromodeoxyuridine (BrdU at 10 μM in serum-free M199) at 37° C. for an additional 24 h. The incorporation of BrdU into the proliferating HUVEC were analyzed using BrdU Cell Proliferation ELISA (Roche Molecular Biochemicals, 1647229) according to the manufacturer's protocols. The optical density at 450 nm was measured with a multilabel counter (ARVO SX, Wallac). The percent inhibition of cell growth was calculated relative to blank control wells. The concentration of test compound that inhibits 50% of cell growth (IC50) was interpolated using nonlinear regression (Levernberg-Marquardt) and the equation, y=Vmax (1−x/(K+x))+Y2, where “K” was equal to the IC50. The IC50, values were converted to pIC50 values, i.e., −log IC50 in Molar concentration.

The target in assay [2] is T1, GST-TIE2 (intracellular domains of human TIE2) (Homo sapiens, UniProt Q02763).
T1 construct: made in house
Kind of assay: TIE-2 enzyme assay (TIE2-E), LANCE method. The class given is biochemical. The following applies: 80 uM ATP. How it is done: TIE-2Enzyme Assay (TIE2-E)
The TIE-2 enzyme assay used the LANCE method (Wallac) and GST-TIE2, baculovirus expressed recombinant constructs of the intracellular domains of human TIE2 (amino acids 762–1104, GenBank Accession # L06139) tagged by GST). […] This peptide phosphorylation was detected using the following procedure: for enzyme preactivation, GST-TIE2 was incubated for 30 mins at room temperature with 2 mM ATP, 5 mM MgCl2 and 12.5 mM DTT in 22.5 mM HEPES buffer (pH7.4). Preactivated GST-TIE2 was incubated for 30 mins at room temperature in 96 well plates with 1 μM D1-15 peptide, 80 uM ATP, 10 mM MgCl2, 0.1 mg/ml BSA and the test compound (diluted from a 10 mM stock in DMSO, final DMSO concentration was 2.4%) in 1 mM HEPES (pH7.4). The reaction was stopped by the addition of EDTA (final concentration 45 mM). Streptavidin linked-APC (allophycocyanin, Molecular Probe) and Europium-labeled anti-phosphorylated tyrosine antibody (Wallac) were then added at the final concentration of 17 μg/well and 2.1 μg/well, respectively. The APC signal was measured using an ARVO multilabel counter. (Wallac Berthold Japan). The percent inhibition of activity was calculated relative to blank control wells. The concentration of test compound that inhibits 50% of activity (IC50) was interpolated using nonlinear regression (Levernberg-Marquardt) and the equation, y=Vmax (1−x/(K+x))+Y2, where “K” was equal to the IC50. The IC50 values were converted to pIC50 values, i.e., −log IC50 in Molar concentration.

A further assay deals with T2, GST-VEGFR2 (Homo sapiens, UniProt P35968).
T2 construct: GST-VEGFR2, baculovirus expressed recombinant constructs of the intracellular domains of human TIE2 tagged by GST; made in house
The assay is described as follows: VEGF-R2 enzyme assay (VEGF-E), LANCE method. The class given is biochemical. The settings on record: 75 μM ATP. As for the experimental part:
VEGF-R2 Enzyme Assay (VEGF-E)
The VEGF enzyme assay used the LANCE method (Wallac) and GST-VEGFR2, baculovirus expressed recombinant constructs of the intracellular domains of human […] tagged by GST. […] The reaction was stopped by the addition of EDTA (final concentration 50 mM). Streptavidin linked-APC (allophycocyanin, Molecular Probe) and Europium-labeled anti-phosphorylated tyrosine antibody (Wallac) were then added at the final concentration of 15 nM and 1 nM, respectively. The APC signal was measured using an ARVO multilabel counter (Wallac Berthold, Japan). The percent inhibition of activity was calculated relative to blank control wells. The concentration of test compound that inhibits 50% of activity (IC50) was interpolated using nonlinear regression (Levernberg-Marquardt) and the equation, y=Vmax (1−x/(K+x))+Y2, where “K” was equal to the IC50. The IC50 values were converted to pIC50 values, i.e., −log IC50 in Molar concentration.

The target of assay [3] is T3, TIE2 intracellular domain/c-fms extracellular domain (TIE2/c-fms) chimeric protein expressing mouse 3T3 cells (Homo sapiens, UniProt Q02763).
T3 construct: a TIE2 intracellular domain/c-fms extracellular domain (TIE2/c-fms) chimeric protein; expressed in transfected cells; host or cells: mouse 3T3 cells
Kind of assay: TIE-2 autophosphorylation assay (TIE2-C), ELISA. The following applies: TIE2/c-fms 3T3 cells, MCSF activation. The class given is cell-based. How it is done:
TIE-2 Autophosphorylation Assay (TIE2-C)
The TIE-2 autophosphorylation assay used an ELISA method and a TIE2 intracellular domain/c-fms extracellular domain (TIE2/c-fms) chimeric protein expressing mouse 3T3 cells. This assay measured the autophosphorylation level of TIE2 protein expressed in cells. The cells were cultured in high glucose DMEM (Sigma) containing 10% serum at 37° C. in a humidified 10% CO2, 90% air incubator. The test compound (diluted from a 10 mM stock in DMSO, final DMSO concentration was 0.1%) was incubated with TIE2/c-fms expressing cells for 1 hr in serum free DMEM in 96 well plates followed by the activation of TIE2/c-fms receptor using c-fms ligand, MCSF (macrophage colony stimulating factor). The culture media was removed by aspiration and the cells incubated for at least 30 mins on ice with lysis buffer containing 137 mM NaCl, 2 mM EDTA, 10% glycerol, […] sodium ortho vanadate and complete protease inhibitor cocktail (Roche) in 20 mM Tris-HCl (pH8.0). The cell extracts were transferred into Rat anti-c-fms antibody coated 96 well plates and incubated for 12 hrs at 4° C. The extracts were removed by aspiration and the plate was incubated with biotinylated anti-phosphotyrosine antibody, PT66 (Sigma) and then with HRP (Horseradish Peroxidase)-labeled streptavidin (PIERCE). The optical density at 450 nm derived from HRP catalyzed TMB was measured with an ARVO multilabel counter. (Wallac Berthold Japan). The percent inhibition of activity was calculated relative to blank control wells. The concentration of test compound that inhibits 50% of activity (IC50) was interpolated using nonlinear regression (Levernberg-Marquardt) and the equation, y=Vmax (1−x/(K+x))+Y2, where “K” was equal to the IC50. The IC50 values were converted to pIC50 values, i.e., −log IC50 in Molar concentration.

Structures can show the parent of a compound that is named as a salt.

T3 sequence (Q02763 770-1124 limits assumed, change not shown): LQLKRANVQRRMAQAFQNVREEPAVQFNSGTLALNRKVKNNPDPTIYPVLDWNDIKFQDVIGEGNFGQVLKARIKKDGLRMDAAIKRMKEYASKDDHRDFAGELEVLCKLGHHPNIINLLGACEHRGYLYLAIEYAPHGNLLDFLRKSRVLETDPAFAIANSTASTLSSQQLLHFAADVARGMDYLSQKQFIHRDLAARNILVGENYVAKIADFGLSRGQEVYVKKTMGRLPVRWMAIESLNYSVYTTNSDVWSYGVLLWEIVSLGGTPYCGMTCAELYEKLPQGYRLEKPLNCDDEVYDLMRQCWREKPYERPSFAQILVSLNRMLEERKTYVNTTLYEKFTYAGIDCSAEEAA
T1 sequence (Q02763 762-1104): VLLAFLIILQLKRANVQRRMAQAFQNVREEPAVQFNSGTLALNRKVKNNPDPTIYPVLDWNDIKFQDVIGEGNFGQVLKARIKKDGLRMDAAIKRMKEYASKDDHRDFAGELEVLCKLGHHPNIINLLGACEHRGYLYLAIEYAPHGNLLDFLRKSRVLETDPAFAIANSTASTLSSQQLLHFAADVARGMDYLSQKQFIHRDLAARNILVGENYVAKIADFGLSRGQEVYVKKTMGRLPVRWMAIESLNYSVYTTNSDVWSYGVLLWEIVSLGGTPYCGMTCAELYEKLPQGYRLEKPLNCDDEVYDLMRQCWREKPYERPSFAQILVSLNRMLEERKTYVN
T2 sequence (P35968 786-1356 limits assumed): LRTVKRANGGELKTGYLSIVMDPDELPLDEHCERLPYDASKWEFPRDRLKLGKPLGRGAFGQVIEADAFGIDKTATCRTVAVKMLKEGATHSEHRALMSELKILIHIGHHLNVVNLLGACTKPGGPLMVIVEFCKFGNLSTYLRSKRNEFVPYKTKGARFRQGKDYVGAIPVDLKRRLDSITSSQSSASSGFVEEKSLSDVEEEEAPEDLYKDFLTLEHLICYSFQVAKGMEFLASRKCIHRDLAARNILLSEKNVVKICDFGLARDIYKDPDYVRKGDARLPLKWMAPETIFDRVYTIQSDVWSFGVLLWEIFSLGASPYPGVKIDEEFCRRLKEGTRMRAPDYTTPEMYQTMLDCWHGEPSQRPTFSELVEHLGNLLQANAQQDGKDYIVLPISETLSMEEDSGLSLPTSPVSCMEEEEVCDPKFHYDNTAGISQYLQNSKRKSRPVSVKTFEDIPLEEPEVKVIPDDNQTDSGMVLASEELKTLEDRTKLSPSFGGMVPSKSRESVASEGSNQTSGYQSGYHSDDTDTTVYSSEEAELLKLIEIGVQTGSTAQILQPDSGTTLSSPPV

As to `O=C(Nc1ccc(Oc2ccc3[nH]c(NC(=O)c4ccco4)nc3c2)cc1)Nc1cc(C(F)(F)F)ccc1F` [Example 27, N-(5-(4-((2-Fluoro-5-(trifluoromethyl)phenyl)aminocarbonylamino)phenoxy)-1H-benzimidazol-2-yl)(2-fury)formamide], the IC50 in assay [1] was 100 to 1000 nM.

For the compound `COC(=O)Nc1nc2ccc(Sc3ccc(NC(=O)Nc4cc(C(F)(F)F)cc(C(F)(F)F)c4)cc3)cc2[nH]1` [Example 3, Methyl N-(5-(4-((3,5-di(trifluoromethyl)phenyl)aminocarbonylamino)phenylthio)-1H-benzimidazol-2-yl)carbamate], the IC50 was 100 to 1000 nM in assay [2] and below 100 nM at GST-VEGFR2. Further, in assay [1], the VEGF-C entry is recorded as “−”.

As for `CC(=O)Nc1nc2cc(Oc3ccc(NC(=O)Nc4cc(C(F)(F)F)ccc4F)cc3)ccc2[nH]1` [Example 25, N-(5-(4-((2-Fluoro-5-(trifluoromethyl)phenyl)aminocarbonylamino)phenoxy)-1H-benzimidazol-2-yl)acetamide], the IC50 in assay [1] was below 100 nM.

In the case of `COC(=O)Nc1nc2ccc(Sc3ccc(NC(=O)Nc4cc(C(F)(F)F)ccc4F)cc3)cc2[nH]1` [Example 9, Methyl N-(5-(4-((2-fluoro-5-(trifluoromethyl)phenyl)aminocarbonylamino)phenylthio)-1H-benzimidazol-2-yl)carbamate], the VEGF-C entry in assay [1] is on record as “−”.

Regarding `COC(=O)Nc1nc2ccc(Oc3ccc(NC(=O)Nc4cc(C(F)(F)F)ccc4F)cc3)cc2[nH]1` [Example 10, Methyl N-(5-(4-((2-fluoro-5-(trifluoromethyl)phenyl)aminocarbonylamino)phenoxy)-1H-benzimidazol-2-yl)carbamate], the IC50 (against GST-VEGFR2; in assay [1]) was below 100 nM throughout.

Consider `CCc1cccc(NC(=O)Nc2ccc(Sc3ccc4nc(NC(=O)OC)[nH]c4c3)cc2)c1` [Example 7, Methyl N-(5-(4-((3-ethylphenyl)aminocarbonylamino)phenylthio)-1H-benzimidazol-2-yl)carbamate], for which the half-inhibitory concentration (IC50) in assay [2] was below 100 nM. At GST-VEGFR2, the VEGF-E entry is on record as “−”. The VEGF-C entry in assay [1] is listed as “−”.

`COC(=O)Nc1nc2ccc(Sc3ccc(NC(=O)Nc4cc([N+](=O)[O-])ccc4C)cc3)cc2[nH]1` [Example 6, Methyl N-(5-(4-((2-methyl-5-nitrophenyl)aminocarbonylamino)phenylthio)-1H-benzimidazol-2-yl)carbamate]: the half-inhibitory concentration (IC50) in assay [2] is below 100 nM; against GST-VEGFR2, 1000 to 10000 nM. In assay [1], the VEGF-C entry is “−”.

In the case of `COC(=O)Nc1nc2ccc(Sc3ccc(NC(=O)Nc4cc([N+](=O)[O-])ccc4F)cc3)cc2[nH]1` [Example 8, Methyl N-(5-(4-((2-fluoro-5-nitrophenyl)aminocarbonylamino)phenylthio)-1H-benzimidazol-2-yl)carbamate], the half-inhibitory concentration (IC50) (in assay [2]; on GST-VEGFR2) was below 100 nM throughout. Moreover, the VEGF-C entry in assay [1] is “−”.

Regarding `COC(=O)Nc1nc2c(Br)cc(Oc3ccc(NC(=O)Nc4cc(C(F)(F)F)ccc4F)cc3)cc2s1.Cl` [Example 65], the VEGF-C entry in assay [1] was “−”.

Regarding `COC(=O)Nc1nc2ccc(Oc3cccc(NC(=O)Nc4cc(C(F)(F)F)ccc4Cl)c3)cc2[nH]1` [Example 52, Methyl N-(5-(3-((2-chloro-5-(trifluoromethyl)phenyl)aminocarbonylamino)phenoxy)-1H-benzimidazol-2-yl)carbamate hydrochloride], the IC50 in assay [2] is below 100 nM; in assay [3], 100 to 1000 nM; against GST-VEGFR2 it was below 100 nM.

As for `O=C(Nc1ccc(Oc2ccc3nc(NC(=O)c4cccs4)[nH]c3c2)cc1)Nc1cc(C(F)(F)F)ccc1F` [Example 100, N-(5-(4-((2-Fluoro-5-(trifluoromethyl)phenyl)aminocarbonylamino)phenoxy)-1H-benzimidazol-2-yl)-2-thiophenecarboxamide], the IC50 (in assay [2]; in assay [3]; at GST-VEGFR2) was below 100 nM each time.

On to `COC(=O)Nc1nc2cc(Oc3ccc(NC(=S)Nc4cccc(OC)c4)cc3)ccc2[nH]1` [Example 185, Methyl N-(5-(4-((3-methoxyphenyl)aminothiocarbonylamino)phenoxy)-1H-benzimidazol-2-yl)carbamate], for which the IC50 against GST-VEGFR2 fell in the range of 100 to 1000 nM; in assay [1], 1000 to 10000 nM.

With `COC(=O)Nc1nc2cc(Oc3ccc(NC(=S)Nc4cccc(Cl)c4)cc3)ccc2[nH]1` [Example 184, Methyl N-(5-(4-((3-chlorophenyl)aminothiocarbonylamino)phenoxy)-1H-benzimidazol-2-yl)carbamate], the IC50 in assay [2] was 1000 to 10000 nM; in assay [3], 1000 to 10000 nM; against GST-VEGFR2, below 100 nM.

Regarding `COC(=O)Nc1nc2c(Br)cc(Oc3ccc(NC(=O)Nc4cc(C(F)(F)F)ccc4F)cc3)cc2s1.Cl` [Example 65, Methyl N-(4-bromo-6-(4-((6-fluoro-3-(trifluoromethylphenyl)aminocarbonylamino)phenoxy)benzthiazol-2-yl)carbamate hydrochloride], the IC50 (in assay [2]; in assay [3]; against GST-VEGFR2) was below 100 nM throughout.
